{"source": "patent US9445590B2", "about": "“Fungicidal composition comprising a pyridylethylbenzamide derivative and a compound capable of inhibiting the transport of electrons of the respiratory chain in phytopathogenic fungal organisms” (BAYER INTELLECTUAL PROPERTY GMBH, priority 2004, dated 2016)", "key": {"[1]": {"tested_on": "Alternaria brassicae", "assay": "Efficacy against Alternaria brassicae (in vitro), growth on PDA medium", "format": "cell-based", "details": "radial growth after 14 days", "description": "The growth of Alternaria brassicae was followed on PDA medium containing the compounds alone or in mixtures. The PDA medium is prepared by mixing 39 grams of PDA (Merck) in 1 litter of demineralised water. The medium is sterilized by autoclave 15 minutes at 121° C. The compounds are dissolved in acetone and added to the medium before pouring it in Petri dishes. After medium drying, the fungus is inoculated on the medium and allowed to growth at 19° C. The percentage of efficacy is noted after 14 days of growth (measurement of the radial growth) of the fungus in comparison with a control. […]"}, "[2]": {"tested_on": "Sphaerotheca fuliginea", "assay": "Efficacy against Sphaerotheca fuliginea on gherkin plants (preventive spray)", "format": "in vivo", "details": "Podosphaera fuliginea, 504 h, grading 21 days after contamination", "description": "(§1) The active ingredients tested are prepared by potter homogenisation in a mixture of acetone/tween/water. This suspension is then diluted with water to obtain the desired active material concentration.\n(§2) Gherkin plants (Vert petit de Paris variety) in starter cups, sown on a 50/50 peat soil-pozzolana substrate and grown at 20° C./23° C., are treated at the 2-leaves stage by spraying with the aqueous suspension described above. Plants, used as controls, are treated with an aqueous solution not containing the active material.\nAfter 24 hours, the plants are contaminated by spraying them with an aqueous suspension of Sphaerotheca fuliginea spores (100 000 spores per ml). The spores are collected from a contaminated plants. The contaminated gherkin plants are incubated at about 20° C./25° C. and at 60/70% relative humidity.\nGrading (% of efficacy) is carried out 21 days after the contamination, in comparison with the control plants."}, "[3]": {"tested_on": "Botrytis cinerea", "assay": "Efficacy against Botrytis cinerea on gherkin plants (preventive spray)", "format": "in vivo", "details": "grading 5 to 7 days after contamination", "description": "as §1\nas §2, with “(Petit vert” for “(Vert petit”, “18-20°” for “20° C./23°”, “cotyledon Z11” for “2-leaves”\nAfter 24 hours, the plants are contaminated by depositing drops of an aqueous suspension of Botrytis cinerea spores (150,000 spores per ml) on upper surface of the leaves. The spores are collected from a 15-day-old culture and are suspended in a nutrient solution composed of: • 20 g/L of gelatine • 50 g/L of cane sugar • 2 g/L of NH4NO3 • 1 g/L of KH2PO4\nThe contaminated gherkin plants are settled for 5/7 days in a climatic room at 15-11° C. (day/night) and at 80% relative humidity. Grading is carried out 5 to 7 days after contamination, in comparison with the control plants.\nas §2, with “(Petit vert” for “(Vert petit”, “18-20°” for “20° C./23°”, “cotyledon Z 11” for “2-leaves”\n(§3) The formulated compounds are diluted with water to obtain the desired active material concentration."}, "[4]": {"tested_on": "Erysiphe graminis f. sp. tritici", "assay": "Efficacy against Erysiphe graminis f. sp. tritici on wheat plants (preventive spray)", "format": "in vivo", "details": "grading 7 to 14 days after contamination", "description": "as §1\n(§4) Wheat plants (Audace variety) in starter cups, sown on 50/50 peat soil-pozzolana substrate and grown at 12° C., are treated at the 1-leaf stage (10 cm tall) by spraying with the aqueous suspension described above.\n(§5) Plants, used as controls, are treated with an aqueous solution not containing the active material.\nAfter 24 hours, the plants are contaminated by dusting them with Erysiphe graminis f. sp. tritici spores, the dusting being carried out using diseased plants.\nGrading is carried out 7 to 14 days after the contamination, in comparison with the control plants.\nas §3\nas §4, with “above. Plants, used as controls, are treated with an aqueous solution not containing the active material.” for “above.”"}, "[5]": {"tested_on": "Alternaria brassicae", "assay": "Efficacy against Alternaria brassicae on radish plants (preventive spray)", "format": "in vivo", "details": "Example 13, dose 111 ppm, grading 6 to 7 days after contamination", "description": "as §3\nRadish plants (Pernot variety) in starter cups, sown on a 50/50 peat soil-pozzolana substrate and grown at 18-20° C., are treated at the cotyledon stage by spraying with the aqueous suspension described above.\nas §5\nAfter 24 hours, the plants are contaminated by spraying them with an aqueous suspension of Alternaria brassicae spores (40,000 spores per cm^3). The spores are collected from a 12-13-day-old culture.\nThe contaminated radish plants are incubated for 6-7 days at about 18° C., under a humid atmosphere.\nGrading is carried out 6 to 7 days after the contamination, in comparison with the control plants."}, "[6]": {"tested_on": "Pyrenophora teres", "assay": "Efficacy against Pyrenophora teres on barley plants (preventive spray)", "format": "in vivo", "details": "288 h, grading 12 days after contamination", "description": "as §1\nas §2, with “Barley” for “Gherkin”, “(Express” for “(Vert petit de Paris”, “12°” for “20° C./23°”, “1-leaf” for “2-leaves”, “stage (10 cm tall)” for “stage”\nAfter 24 hours, the plants are contaminated by spraying them with an aqueous suspension of Pyrenophora teres spores (12 000 spores per ml). The spores are collected from a 12-day-old culture. The contaminated barley plants are incubated for 24 hours at about 20° C. and at 100% relative humidity, and then for 12 days at 80% relative humidity.\nGrading (% of efficacy) is carried out 12 days after the contamination, in comparison with the control plants."}}, "data": [{"smiles": "CO/C=C(/C(=O)OC)c1ccccc1Oc1cc(Oc2ccccc2C#N)ncn1", "note": "[Azoxystrobin, azoxystrobin]", "values": [{"measurement": "% Efficacy", "setting": "[1]; Example 3, dose 0.025 ppm", "value": 38, "unit": "%"}, {"measurement": "% Efficacy", "setting": "[1]; Example 3, dose 0.05 ppm", "value": 41, "unit": "%"}, {"measurement": "% Efficacy", "setting": "[1]; Example 3, dose 0.1 ppm", "value": 47, "unit": "%"}, {"measurement": "% Efficacy", "setting": "[1]; Example 3, dose 0.25 ppm", "value": 56, "unit": "%"}, {"measurement": "% Efficacy", "setting": "[1]; Example 3, dose 0.5 ppm", "value": 47, "unit": "%"}, {"measurement": "% Efficacy", "setting": "[1]; Example 3, dose 1 ppm", "value": 48, "unit": "%"}, {"measurement": "% Efficacy", "setting": "[1]; Example 3, dose 2.5 ppm", "value": 49, "unit": "%"}]}, {"smiles": "O=C(Nc1ccccc1-c1ccc(Cl)cc1)c1cccnc1Cl", "note": "[Boscalid, boscalid, reference compound]", "values": [{"measurement": "Emax at 4 ppm", "setting": "[2]; Example 11, dose 4 ppm", "value": 0, "unit": "%"}, {"measurement": "Emax at 8 ppm", "setting": "[2]; Example 11, dose 8 ppm", "value": 10, "unit": "%"}, {"measurement": "Emax at 15 ppm", "setting": "[2]; Example 11, dose 15 ppm", "value": 45, "unit": "%"}]}, {"smiles": "CNC(=O)C(=NOC)c1ccccc1Oc1ncnc(Oc2cccc(Cl)c2C)c1F", "note": "[Compound A, 2-{2-[6-(3-Chloro-2-methylphenoxy)-5-fluoro-pyrimidin-4-yloxy]-phenyl}2-methoxyimino-N-methylacetamide]", "values": [{"measurement": "Emax at 37 ppm", "setting": "[3]; Botrytis cinerea, Example 8, dose 37 ppm", "value": 0, "unit": "%"}, {"measurement": "Emax at 111 ppm", "setting": "[3]; Botrytis cinerea, Example 8, dose 111 ppm", "value": 0, "unit": "%"}, {"measurement": "Emax at 333 ppm", "setting": "[3]; Botrytis cinerea, Example 8, dose 333 ppm", "value": 0, "unit": "%"}]}, {"smiles": "Cc1nn(C)c(F)c1C(=O)Nc1ccccc1C(C)CC(C)C", "note": "(centres unmarked) [Compound B, N-[2-(1,3-dimethyl-butyl)-phenyl]-5-fluoro-1,3-dimethyl-1H-pyrazole-4-carboxamide]", "values": [{"measurement": "Emax at 4 ppm", "setting": "[3]; Botrytis cinerea, Example 10, dose 4 ppm", "value": 32, "unit": "%"}]}, {"smiles": "Cn1cc(C(=O)Nc2ccc(F)cc2-c2ccc(Cl)c(Cl)c2)c(C(F)F)n1", "note": "[Compound C, N-(3′,4′-dichloro-5-fluorobiphenyl-2-yl)-3-(difluoro-methyl)-1-methyl-1H-pyrazole-4-carboxamide]", "values": [{"measurement": "Emax at 31.2 ppm", "setting": "[2]; Example 12, dose 31.2 ppm", "value": 0, "unit": "%"}, {"measurement": "Emax at 62.5 ppm", "setting": "[2]; Example 12, dose 62.5 ppm", "value": 0, "unit": "%"}]}, {"smiles": "CC(C)CC(C)c1sccc1NC(=O)c1cn(C)nc1C(F)(F)F", "note": "(centres unmarked) [Compound D, N-[2-(1,3-dimethylbutyl)-thiophen-3-yl]1-methyl-3-(trifluoromethyl)-1H-pyrazole-4-carboxamide]", "values": [{"measurement": "Emax at 250 ppm", "setting": "[3]; Botrytis cinerea, Example 14, dose 250 ppm, formulated compounds", "value": 60, "unit": "%"}]}, {"smiles": "CNC(=O)/C(=N/OC)c1ccccc1COc1cc(C)ccc1C", "note": "[Dimoxystrobin, dimoxystrobin, reference compound]", "values": [{"measurement": "% Efficacy", "setting": "[4]; Example 9, dose 62.5 g/ha, formulated compounds", "value": 0, "unit": "%"}]}, {"smiles": "CSC1=N[C@@](C)(c2ccccc2)C(=O)N1Nc1ccccc1", "note": "[Fenamidone, fenamidone, reference compound]", "values": [{"measurement": "Emax at 111 ppm", "setting": "[5]", "value": 55, "unit": "%"}]}, {"smiles": "CO/N=C(/C1=NOCCO1)c1ccccc1Oc1ncnc(Oc2ccccc2Cl)c1F", "note": "[Fluoxastrobin, fluoxastrobin, reference compound]", "values": [{"measurement": "Emax at 15 ppm", "setting": "[4]; Blumeria graminis, Example 4, dose 15 ppm", "value": 20, "unit": "%"}]}, {"smiles": "CO/N=C(/C(=O)OC)c1ccccc1COc1ccccc1C", "note": "[Kresoxim-methyl, kresoxim-methyl, reference compound]", "values": [{"measurement": "Emax at 37 ppm", "setting": "[3]; Botrytis cinerea, Example 5, dose 37 ppm", "value": 0, "unit": "%"}, {"measurement": "Emax at 111 ppm", "setting": "[3]; Botrytis cinerea, Example 5, dose 111 ppm", "value": 0, "unit": "%"}, {"measurement": "Emax at 333 ppm", "setting": "[3]; Botrytis cinerea, Example 5, dose 333 ppm", "value": 0, "unit": "%"}]}, {"smiles": "CO/C=C(/C(=O)OC)c1ccccc1COc1cccc(C(F)(F)F)n1", "note": "[Picoxystrobin, picoxystrobin, reference compound]", "values": [{"measurement": "% Efficacy", "setting": "[3]; Example 6, dose 37 ppm", "value": 0, "unit": "%"}, {"measurement": "% Efficacy", "setting": "[3]; Example 6, dose 111 ppm", "value": 35, "unit": "%"}, {"measurement": "% Efficacy", "setting": "[3]; Example 6, dose 333 ppm", "value": 40, "unit": "%"}]}, {"smiles": "COC(=O)N(OC)c1ccccc1COc1ccn(-c2ccc(Cl)cc2)n1", "note": "[Pyraclostrobin, pyraclostrobin, reference compound]", "values": [{"measurement": "Emax at 37 ppm", "setting": "[3]; Botrytis cinerea, Example 7, dose 37 ppm", "value": 0, "unit": "%"}, {"measurement": "Emax at 111 ppm", "setting": "[3]; Botrytis cinerea, Example 7, dose 111 ppm", "value": 0, "unit": "%"}, {"measurement": "Emax at 333 ppm", "setting": "[3]; Botrytis cinerea, Example 7, dose 333 ppm", "value": 0, "unit": "%"}]}, {"smiles": "CON=C(C(=O)OC)c1ccccc1CON=C(C)c1cccc(C(F)(F)F)c1", "note": "[Trifloxystrobin, trifloxystrobin]", "values": [{"measurement": "Emax at 4 g/ha", "setting": "[6]; Example 1, dose 4 g/ha", "value": 50, "unit": "%"}, {"measurement": "Emax at 8 g/ha", "setting": "[6]; Example 1, dose 8 g/ha", "value": 70, "unit": "%"}, {"measurement": "Emax at 0.025 ppm", "setting": "[1]; Alternaria brassicae, 336 h, Example 2, dose 0.025 ppm", "value": 45, "unit": "%"}, {"measurement": "Emax at 0.05 ppm", "setting": "[1]; Alternaria brassicae, 336 h, Example 2, dose 0.05 ppm", "value": 44, "unit": "%"}, {"measurement": "Emax at 0.1 ppm", "setting": "[1]; Alternaria brassicae, 336 h, Example 2, dose 0.1 ppm", "value": 45, "unit": "%"}, {"measurement": "Emax at 0.25 ppm", "setting": "[1]; Alternaria brassicae, 336 h, Example 2, dose 0.25 ppm", "value": 53, "unit": "%"}, {"measurement": "Emax at 0.5 ppm", "setting": "[1]; Alternaria brassicae, 336 h, Example 2, dose 0.5 ppm", "value": 60, "unit": "%"}, {"measurement": "Emax at 1 ppm", "setting": "[1]; Alternaria brassicae, 336 h, Example 2, dose 1 ppm", "value": 65, "unit": "%"}, {"measurement": "Emax at 2.5 ppm", "setting": "[1]; Alternaria brassicae, 336 h, Example 2, dose 2.5 ppm", "value": 71, "unit": "%"}]}]}
